Reference: patent publication US20260191821A1, “COMPOSITIONS AND METHODS FOR TREATING NEURODEGENERATIVE DISEASES” (The General Hospital Corporation, priority 2023, published 2026)
Where two headings read alike, the source gives them in different places.

Assays:
TNFα = TNFα release by LPS-activated BV2 microglial cells, ELISA on conditioned cell media; type: cell-based; conditions: for TNFα release / LPS-induced microglial pro-inflammatory activation: Example 1, BV2 cells, FIGS. 2, 4B, 5; for TNFα release / LPS-induced microglial pro-inflammatory activation / EC50: 1 μg/mL LPS for 5 hours; for EC50: Mus musculus, BV-2, BV2 cells, read-out: EC50 of TNFα reduction
Experimental: Effects of urolithin A and fisetin on the reduction of pro-inflammatory cytokines levels, such as TNFα, were assessed in an unbiased library screening. BV2 microglial cells were converted to a pro-inflammatory activation state by acute treatment with 1 μg/mL of Lipopolysaccharide (LPS) for 5 hours in the presence of a vehicle or urolithin A or fisetin. Effects on inflammation were assessed by measuring levels of a representative pro-inflammatory cytokine, TNFα, via an ELISA assay on the conditioned cell media. FIGS. 2A and 2B show representative results of the dose-response reduction of TNFα after treatment with LPS and urolithin A and fisetin, respectively.
BV2 microglial cells were next treated with 1 μg/mL of LPS for 5 hours in the presence of urolithin A and fisetin at different concentrations, alone or in combination (FIG. 5). Levels of TNFα secreted by the microglial cells into the conditioned cell media were measured using ELISA.
Effects of urolithin A, fisetin, nicotinamide riboside, cat's claw, and quercetin, alone or in combination, on TNFα concentration were assessed (FIGS. 6A-6E and 7A-7C). BV2 microglial cells were converted to a pro-inflammatory activation state by acute treatment with 1 μg/mL of Lipopolysaccharide (LPS) for 5 hours in the presence of a vehicle or nicotinamide riboside (#101), cat's claw (#134), urolithin A (#144), fisetin (NP-82) or quercetin (NP-162), alone or in combination. Effects on inflammation were assessed by measuring levels of TNF&, via an ELISA assay on the conditioned cell media.

[1] = 500 mg to 1000 mg daily; cited from earlier work
BV2 microglial cells = experiment: Microglial Aβ42 uptake/clearance in BV2 microglial cells, measured by Aβ ELISA; type: cell-based
Experimental: Urolithin A was identified as a top-tier enhancer of Aβ clearance by microglia in an unbiased (and biased) screening of natural product compounds. Cellular assay models based on BV2 microglial cells were used to assess the ability of microglia to phagocytose synthetic Aβ42 peptides, a major pathogenic Aβ isoform of Alzheimer's disease Aβ species (microglial uptake/clearance).
The ability of the agents, alone or in combination, to increase microglial Aβ uptake was also assessed (FIG. 9). […] FIGS. 11B-11D and FIGS. 12A-12F show TNFα levels in response to treatment with cat's claw (#134), urolithin A (#144), fisetin (NP-82) and quercetin (NP-162), alone or in various combinations.

Compound | TNFα release / LPS-induced microglial pro-inflammatory activation (TNFα) | EC50 (TNFα; FIG. 2B) | reduction of TNFα levels (TNFα; fisetin alone, LPS-treated BV2 microglia cells, FIG. 4B) | reported safety and/or usefulness [1] | microglial Aβ uptake/clearance (BV2 microglial cells; Example 1, BV2 microglial cells, FIG. 1 and FIG. 3) | EC50 (BV2 microglial cells; Mus musculus, BV-2, BV2 microglial cells, synthetic Aβ42 peptides, FIG. 1) | EC50 (TNFα; FIG. 2A)
O=c1c(O)c(-c2ccc(O)c(O)c2)oc2cc(O)ccc12 [fisetin, 3,3′,4′,7-tetrahydroxyflavone] | reduce TNFα release by LPS-activated microglia in a dose-dependent manner | 8 µM | roughly 75% | – | – | – | –
O=c1oc2cc(O)ccc2c2ccc(O)cc12 [urolithin A, 3,8-dihydroxy-6H-benzo[b,d]pyran-6-one] | reduce TNFα release by LPS-activated microglia in a dose-dependent manner | – | – | safe and/or useful | increases microglial Aβ uptake/clearance in a dose-dependent manner | 12.4 µM | 21 µM
